How the values were obtained:
Type in all cases: binding
KIT(D816H) = target: T1, KIT(D816H) (Homo sapiens, UniProt P10721, D816H); assay: kinome scan; details: 10 µM
T1 construct: purchased DiscoverX (KINOMEscan)

BRSK2 = target: T2, BRSK2 (Homo sapiens, UniProt Q8IWQ3); assay: kinome scan; details: 10 µM
T2 construct: purchased DiscoverX (KINOMEscan)

[1] = target: T3, JAK3(JH1domain-catalytic) (Homo sapiens, UniProt P52333); assay: kinome scan; details: 10 µM
T3 construct: JAK3(JH1domain-catalytic); purchased DiscoverX (KINOMEscan)

CDC2L1 = target: T4, CDC2L1 (Homo sapiens, UniProt P21127); assay: kinome scan; details: 10 µM
T4 construct: purchased DiscoverX (KINOMEscan)

PRKG2 = target: T5, PRKG2 (Homo sapiens, UniProt Q13237); assay: kinome scan; details: 10 µM
T5 construct: purchased DiscoverX (KINOMEscan)

[2] = target: T6, RPS6KA5(Kin.Dom.1-N-terminal) (Homo sapiens, UniProt O75582); assay: kinome scan; details: 10 µM
T6 construct: RPS6KA5(Kin.Dom.1-N-terminal); purchased DiscoverX (KINOMEscan)

JNK1 = target: T7, JNK1 (Homo sapiens, UniProt P45983); assay: kinome scan; details: 10 µM
T7 construct: purchased DiscoverX (KINOMEscan)

TLK2 = target: T8, TLK2 (Homo sapiens, UniProt Q86UE8); assay: kinome scan; details: 10 µM
T8 construct: purchased DiscoverX (KINOMEscan)

NEK7 = target: T9, NEK7 (Homo sapiens, UniProt Q8TDX7); assay: kinome scan; details: 10 µM
T9 construct: purchased DiscoverX (KINOMEscan)

CSF1R = target: T10, CSF1R (Homo sapiens, UniProt P07333); assay: kinome scan; details: 10 µM
T10 construct: purchased DiscoverX (KINOMEscan)

MLK1 = target: T11, MLK1 (Homo sapiens, UniProt P80192); assay: kinome scan; details: 10 µM
T11 construct: purchased DiscoverX (KINOMEscan)

ERK1 = target: T12, ERK1 (Homo sapiens, UniProt P27361); assay: kinome scan; details: 10 µM
T12 construct: purchased DiscoverX (KINOMEscan)

EGFR(S752-I759del) = target: T13, EGFR(S752-I759del) (Homo sapiens, UniProt P00533, DEL752-759); assay: kinome scan; details: 10 µM
T13 construct: purchased DiscoverX (KINOMEscan)

ERK4 = target: T14, ERK4 (Homo sapiens, UniProt P31152); assay: kinome scan; details: 10 µM
T14 construct: purchased DiscoverX (KINOMEscan)

CSNK2A1 = target: T15, CSNK2A1 (Homo sapiens, UniProt P68400); assay: kinome scan; details: 10 µM
T15 construct: purchased DiscoverX (KINOMEscan)

CDC2L2 = target: T16, CDC2L2 (Homo sapiens, UniProt Q9UQ88); assay: kinome scan; details: 10 µM
T16 construct: purchased DiscoverX (KINOMEscan)

DLK = target: T17, DLK (Homo sapiens, UniProt Q12852); assay: kinome scan; details: 10 µM
T17 construct: purchased DiscoverX (KINOMEscan)

[3] = target: T18, ABL1(F317I)-phosphorylated (Homo sapiens, UniProt P00519, F317I); assay: kinome scan; details: 10 µM
T18 construct: purchased DiscoverX (KINOMEscan)

[4] = target: T19, JAK2(JH1domain-catalytic) (Homo sapiens, UniProt O60674); assay: kinome scan; details: 10 µM
T19 construct: JAK2(JH1domain-catalytic); purchased DiscoverX (KINOMEscan)

ANKK1 = target: T20, ANKK1 (Homo sapiens, UniProt Q8NFD2); assay: Kd select analysis (DiscoverX)
T20 construct: purchased DiscoverX (KINOMEscan)
T20 sequence (Q8NFD2 1-765): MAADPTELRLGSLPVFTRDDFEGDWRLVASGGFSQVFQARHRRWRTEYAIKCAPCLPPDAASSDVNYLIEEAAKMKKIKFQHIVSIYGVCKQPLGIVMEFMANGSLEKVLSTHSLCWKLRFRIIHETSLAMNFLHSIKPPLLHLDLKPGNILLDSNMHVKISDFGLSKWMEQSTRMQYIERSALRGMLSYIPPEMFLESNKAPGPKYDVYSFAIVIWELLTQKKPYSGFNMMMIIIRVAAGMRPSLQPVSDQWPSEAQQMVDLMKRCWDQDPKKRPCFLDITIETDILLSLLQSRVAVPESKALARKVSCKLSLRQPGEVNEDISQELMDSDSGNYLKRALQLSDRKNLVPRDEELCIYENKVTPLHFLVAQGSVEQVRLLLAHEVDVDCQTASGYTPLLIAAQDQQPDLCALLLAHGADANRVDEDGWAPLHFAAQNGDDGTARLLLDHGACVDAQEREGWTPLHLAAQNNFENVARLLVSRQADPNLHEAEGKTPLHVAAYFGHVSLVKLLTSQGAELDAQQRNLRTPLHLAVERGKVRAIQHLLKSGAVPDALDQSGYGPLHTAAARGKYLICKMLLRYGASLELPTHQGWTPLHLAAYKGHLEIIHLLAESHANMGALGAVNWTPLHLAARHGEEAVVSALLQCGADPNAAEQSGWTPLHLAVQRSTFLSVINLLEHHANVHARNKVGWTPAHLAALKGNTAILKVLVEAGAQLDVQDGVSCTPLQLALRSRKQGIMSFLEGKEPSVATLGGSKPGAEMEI
Protocol: Hits are identified by an ultra-sensitive quantitative PCR detecting the specific DNA tag linked to each kinase (Supplementary Figure S2). The drug is used at a concentration of 10 µM and results are expressed as the percentage of signal (kinase PCR detection) with respect to DMSO control conditions. Thirteen hits were identified, with a signal reduction ranging from 0 to 27% (Table 3). Full raw data are presented in Supplementary Table S4. Interactions between 0 and 20% of reduction were considered to be the most significant ones. […] A sub-micromolar affinity (Kd<1 µM) was only seen with two PIKs (PIP4K2C, PI4KB) and GAK (Table 4). Inhibitions curves from these compounds are shown in Supplementary Figure S3.

IRAK1 = target: T21, IRAK1 (Homo sapiens, UniProt P51617); assay: kinome scan; details: 10 µM
T21 construct: purchased DiscoverX (KINOMEscan)

NIM1 = target: T22, NIM1 (Homo sapiens, UniProt Q8IY84); assay: kinome scan; details: 10 µM
T22 construct: purchased DiscoverX (KINOMEscan)

TNK2 = target: T23, TNK2 (Homo sapiens, UniProt Q07912); assay: kinome scan; details: 10 µM
T23 construct: purchased DiscoverX (KINOMEscan)

EPHA8 = target: T24, EPHA8 (Homo sapiens, UniProt P29322); assay: kinome scan; details: 10 µM
T24 construct: purchased DiscoverX (KINOMEscan)

DRAK1 = target: T25, DRAK1 (Homo sapiens, UniProt Q9UEE5); assay: kinome scan; details: 10 µM
T25 construct: purchased DiscoverX (KINOMEscan)

CAMKK2 = target: T26, CAMKK2 (Homo sapiens, UniProt Q96RR4); assay: kinome scan; details: 10 µM
T26 construct: purchased DiscoverX (KINOMEscan)

T1 sequence (P10721 26-976 D816H): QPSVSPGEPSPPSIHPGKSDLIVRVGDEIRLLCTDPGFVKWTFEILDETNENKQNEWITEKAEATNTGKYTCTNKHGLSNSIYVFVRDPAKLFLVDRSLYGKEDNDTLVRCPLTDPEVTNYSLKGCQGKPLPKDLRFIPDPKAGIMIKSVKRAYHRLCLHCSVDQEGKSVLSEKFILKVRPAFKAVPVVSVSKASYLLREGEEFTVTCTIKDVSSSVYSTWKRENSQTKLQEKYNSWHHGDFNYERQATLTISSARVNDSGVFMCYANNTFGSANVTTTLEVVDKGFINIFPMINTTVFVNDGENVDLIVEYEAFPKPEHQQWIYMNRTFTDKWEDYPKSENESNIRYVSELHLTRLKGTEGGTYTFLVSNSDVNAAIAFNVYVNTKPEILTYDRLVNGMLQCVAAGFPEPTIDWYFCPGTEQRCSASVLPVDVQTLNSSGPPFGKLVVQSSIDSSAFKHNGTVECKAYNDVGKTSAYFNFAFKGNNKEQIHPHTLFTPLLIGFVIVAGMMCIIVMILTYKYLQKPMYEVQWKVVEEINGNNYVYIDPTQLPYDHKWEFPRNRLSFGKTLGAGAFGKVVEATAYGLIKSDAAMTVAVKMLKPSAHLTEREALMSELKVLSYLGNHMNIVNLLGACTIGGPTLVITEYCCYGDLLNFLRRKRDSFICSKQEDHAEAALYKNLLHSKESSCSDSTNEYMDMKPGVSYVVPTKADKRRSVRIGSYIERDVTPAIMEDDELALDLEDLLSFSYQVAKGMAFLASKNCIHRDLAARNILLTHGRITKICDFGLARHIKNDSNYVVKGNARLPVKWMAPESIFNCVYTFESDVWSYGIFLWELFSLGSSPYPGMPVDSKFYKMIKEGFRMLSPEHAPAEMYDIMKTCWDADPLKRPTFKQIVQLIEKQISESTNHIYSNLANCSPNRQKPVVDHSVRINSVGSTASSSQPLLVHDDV
T10 sequence (P07333 20-972): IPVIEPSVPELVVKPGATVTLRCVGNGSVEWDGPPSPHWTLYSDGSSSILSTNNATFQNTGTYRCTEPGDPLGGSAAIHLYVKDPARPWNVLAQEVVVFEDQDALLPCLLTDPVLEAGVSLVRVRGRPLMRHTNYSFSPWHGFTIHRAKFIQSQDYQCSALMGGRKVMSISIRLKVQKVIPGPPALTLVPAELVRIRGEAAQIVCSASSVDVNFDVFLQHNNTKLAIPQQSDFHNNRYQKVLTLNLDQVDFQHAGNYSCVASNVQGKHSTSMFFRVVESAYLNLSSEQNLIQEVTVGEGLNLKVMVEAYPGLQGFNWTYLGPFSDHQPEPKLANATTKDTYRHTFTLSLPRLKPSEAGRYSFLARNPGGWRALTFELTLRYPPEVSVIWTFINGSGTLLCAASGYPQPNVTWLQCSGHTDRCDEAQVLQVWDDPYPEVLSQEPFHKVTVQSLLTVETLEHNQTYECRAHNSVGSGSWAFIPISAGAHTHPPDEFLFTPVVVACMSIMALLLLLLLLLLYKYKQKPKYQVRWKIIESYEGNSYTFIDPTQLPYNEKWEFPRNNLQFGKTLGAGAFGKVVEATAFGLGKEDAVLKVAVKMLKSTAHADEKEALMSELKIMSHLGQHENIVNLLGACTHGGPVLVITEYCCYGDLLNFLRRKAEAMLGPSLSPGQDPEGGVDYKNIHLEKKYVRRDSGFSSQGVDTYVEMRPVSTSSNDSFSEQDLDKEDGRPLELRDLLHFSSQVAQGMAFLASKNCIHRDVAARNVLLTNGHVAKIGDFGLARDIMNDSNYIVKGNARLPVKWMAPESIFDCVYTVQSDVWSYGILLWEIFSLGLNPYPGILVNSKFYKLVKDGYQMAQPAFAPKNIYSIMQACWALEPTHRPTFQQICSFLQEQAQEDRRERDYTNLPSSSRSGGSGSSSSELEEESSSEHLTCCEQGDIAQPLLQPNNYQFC
T5 sequence (Q13237 whole entry): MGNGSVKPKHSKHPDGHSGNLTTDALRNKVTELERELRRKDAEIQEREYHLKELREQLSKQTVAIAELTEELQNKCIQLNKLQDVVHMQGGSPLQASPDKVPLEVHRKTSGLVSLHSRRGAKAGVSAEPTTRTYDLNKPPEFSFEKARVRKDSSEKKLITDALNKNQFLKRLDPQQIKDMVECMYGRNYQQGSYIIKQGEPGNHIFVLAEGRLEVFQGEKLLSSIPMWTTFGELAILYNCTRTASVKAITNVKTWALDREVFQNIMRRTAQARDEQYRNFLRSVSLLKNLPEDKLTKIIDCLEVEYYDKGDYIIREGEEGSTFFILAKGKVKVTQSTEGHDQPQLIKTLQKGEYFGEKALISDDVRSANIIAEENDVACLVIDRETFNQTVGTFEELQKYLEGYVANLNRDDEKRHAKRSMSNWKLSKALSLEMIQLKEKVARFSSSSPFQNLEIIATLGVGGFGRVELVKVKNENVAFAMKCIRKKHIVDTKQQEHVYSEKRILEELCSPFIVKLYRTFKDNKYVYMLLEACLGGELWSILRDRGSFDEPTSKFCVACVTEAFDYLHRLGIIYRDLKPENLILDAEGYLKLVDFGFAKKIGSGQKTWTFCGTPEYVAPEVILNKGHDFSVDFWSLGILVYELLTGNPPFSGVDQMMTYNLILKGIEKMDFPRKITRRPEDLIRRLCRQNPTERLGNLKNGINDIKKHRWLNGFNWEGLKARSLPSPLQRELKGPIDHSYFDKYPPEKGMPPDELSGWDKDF
T14 sequence (P31152 whole entry): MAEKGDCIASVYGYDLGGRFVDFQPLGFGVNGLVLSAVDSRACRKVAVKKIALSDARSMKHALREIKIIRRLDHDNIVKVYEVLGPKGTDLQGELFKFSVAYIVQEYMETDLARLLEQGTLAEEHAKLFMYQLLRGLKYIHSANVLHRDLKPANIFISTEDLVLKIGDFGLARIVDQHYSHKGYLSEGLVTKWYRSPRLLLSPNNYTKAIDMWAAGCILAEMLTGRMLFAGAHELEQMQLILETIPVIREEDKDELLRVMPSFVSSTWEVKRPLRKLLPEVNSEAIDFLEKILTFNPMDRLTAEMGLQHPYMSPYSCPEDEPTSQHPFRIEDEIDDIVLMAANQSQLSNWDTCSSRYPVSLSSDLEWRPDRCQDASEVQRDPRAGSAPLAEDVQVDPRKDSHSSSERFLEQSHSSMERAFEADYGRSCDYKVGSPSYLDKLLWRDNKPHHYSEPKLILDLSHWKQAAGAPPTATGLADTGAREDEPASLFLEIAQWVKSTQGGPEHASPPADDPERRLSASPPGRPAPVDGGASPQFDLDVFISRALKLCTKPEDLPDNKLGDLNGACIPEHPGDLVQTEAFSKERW
T13 sequence (P00533 with tags, fused parts or gaps DEL752-759 limits assumed): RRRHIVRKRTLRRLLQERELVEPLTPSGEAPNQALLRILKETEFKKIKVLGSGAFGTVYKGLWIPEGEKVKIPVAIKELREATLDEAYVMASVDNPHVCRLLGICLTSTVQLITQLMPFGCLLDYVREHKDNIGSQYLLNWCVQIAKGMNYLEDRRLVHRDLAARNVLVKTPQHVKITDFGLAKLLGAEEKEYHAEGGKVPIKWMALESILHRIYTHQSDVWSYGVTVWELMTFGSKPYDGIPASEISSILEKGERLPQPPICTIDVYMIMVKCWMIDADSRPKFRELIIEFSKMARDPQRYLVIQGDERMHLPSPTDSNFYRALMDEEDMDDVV
T12 sequence (P27361 whole entry): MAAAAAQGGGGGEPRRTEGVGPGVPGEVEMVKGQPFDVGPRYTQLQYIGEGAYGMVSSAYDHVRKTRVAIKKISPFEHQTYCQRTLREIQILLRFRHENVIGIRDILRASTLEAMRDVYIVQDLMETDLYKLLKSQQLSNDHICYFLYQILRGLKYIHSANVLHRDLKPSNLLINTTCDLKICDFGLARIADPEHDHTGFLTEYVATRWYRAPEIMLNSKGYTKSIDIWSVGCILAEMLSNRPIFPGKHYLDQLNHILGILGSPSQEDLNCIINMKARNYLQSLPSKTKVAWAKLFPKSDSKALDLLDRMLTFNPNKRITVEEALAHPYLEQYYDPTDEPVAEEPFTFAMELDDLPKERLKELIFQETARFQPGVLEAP
T17 sequence (Q12852 whole entry): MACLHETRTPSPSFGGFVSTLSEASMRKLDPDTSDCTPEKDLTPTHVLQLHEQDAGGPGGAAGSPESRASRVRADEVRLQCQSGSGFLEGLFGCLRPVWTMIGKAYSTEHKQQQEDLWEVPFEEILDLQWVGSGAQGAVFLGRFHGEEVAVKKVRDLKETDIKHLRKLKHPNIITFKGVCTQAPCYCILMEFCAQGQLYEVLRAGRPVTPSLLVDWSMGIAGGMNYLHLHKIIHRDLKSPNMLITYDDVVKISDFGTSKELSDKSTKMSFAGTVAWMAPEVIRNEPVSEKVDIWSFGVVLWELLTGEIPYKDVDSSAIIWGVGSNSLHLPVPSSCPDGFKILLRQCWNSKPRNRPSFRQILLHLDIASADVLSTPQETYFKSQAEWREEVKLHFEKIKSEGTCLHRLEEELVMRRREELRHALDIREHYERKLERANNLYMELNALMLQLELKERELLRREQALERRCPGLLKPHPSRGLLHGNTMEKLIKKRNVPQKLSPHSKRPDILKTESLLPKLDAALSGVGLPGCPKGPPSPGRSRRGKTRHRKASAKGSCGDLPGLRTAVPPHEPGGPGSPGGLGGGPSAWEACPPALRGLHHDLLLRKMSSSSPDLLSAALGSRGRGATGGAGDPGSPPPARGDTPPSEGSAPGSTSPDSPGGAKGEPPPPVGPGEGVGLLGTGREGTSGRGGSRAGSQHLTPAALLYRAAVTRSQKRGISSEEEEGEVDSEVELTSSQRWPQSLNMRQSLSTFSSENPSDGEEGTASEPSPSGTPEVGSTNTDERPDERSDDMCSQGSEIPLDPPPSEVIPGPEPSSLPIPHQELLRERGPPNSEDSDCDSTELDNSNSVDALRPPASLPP

Question: What does the source list for `Nc1ccc(N=Nc2ccccc2)c(N)n1` [phenazopyridine, 2,6-diamino-3-(phenylazo)pyridine]?
Answer: kinase inhibition (KIT(D816H)): 85; kinase inhibition (BRSK2): 90; kinase inhibition [1]: 100; kinase inhibition (CDC2L1): 90; kinase inhibition (PRKG2): 81; kinase inhibition [2]: 100; kinase inhibition (JNK1): 78; kinase inhibition (TLK2): 100; kinase inhibition (NEK7): 100; kinase inhibition (CSF1R): 81; kinase inhibition (MLK1): 87; kinase inhibition (ERK1): 95; kinase inhibition (EGFR(S752-I759del)): 97; kinase inhibition (ERK4): 74; kinase inhibition (CSNK2A1): 86; kinase inhibition (CDC2L2): 84; kinase inhibition (DLK): 73; kinase inhibition [3]: 78; kinase inhibition [4]: 82; Kd (ANKK1): 21 µM; kinase inhibition (IRAK1): 100; kinase inhibition (NIM1): 100; kinase inhibition (TNK2): 100; kinase inhibition (EPHA8): 86; kinase inhibition (DRAK1): 45; kinase inhibition (CAMKK2): 99

Reference: PMC8371461 (Frontiers in Pharmacology, 2021)
